Our source for the IC50 values is US11524962B2, “Substituted pyrrolo[2,3-d]pyrimidines as inhibitors of protein arginine methyl transferase 5 (PRMT5)” (PRELUDE THERAPEUTICS, INCORPORATED, priority 2017, dated 2022).

Molecules are shown by their SMILES. Like-named read-outs stand apart in the source and are kept apart here.

This experiment has as its system Granta-519 cells. As to the kind of experiment: Cell proliferation assay in Granta-519 cells. It is filed as cell-based. The conditions noted are these: Homo sapiens. As for the experimental part:
Granta-519 cells were maintained in PRMI 1640 (Corning Cellgro, Catalog #: 10-040-CV) medium supplemented with 10% v/v FBS (GE Healthcare, Catalog #: SH30910.03). Compounds were dissolved in DMSO to make 10 mM stocks and stored at −20° C. Nine-point, 3-fold serial dilutions were made with DMSO with top concentration at 1 mM (working stocks).
On day of experiment, compound working stocks were further diluted at 1:50 with fresh medium in 96 well plate, and 10 μL of diluted drugs were added to a new 96 well plate for proliferation assay. Cells growing at exponential phase were spun down at 1500 rpm for 4 min and resuspend in fresh medium to reach a density of 0.5×10^6 cells/ml. 200 ul of cells were added to 96 well plate containing diluted drugs and incubated for 3 days. DMSO was used a vehicle control.
On day 3, 10 μL of Cell Counting Kit-8 (CCK-8, Jojindo, CK04-13) solution was added to a new 96 well plate. Cells incubated with drugs for 3 days were resuspended by pipetting up and down, and 100 μL of cells were transferred to 96 well plate containing CCK-8 reagent to measure viable cells. Plates were incubated in CO2 incubator for 2 hours and OD450 values were measured with a microplate reader (iMark microplate reader, Bio-Rad).
For re-plating, compound working stocks were diluted at 1:50 with fresh medium and 10 μL of diluted drugs were added to a new 96 well plate. Cells from Day 3 plate (50 ul) were added to 96 well plate containing fresh drug and additional 150 μL of fresh medium was added to reach 200 μL volume. Plate was returned to CO2 incubator and incubated for 3 more days. Viable cells measurement and re-plating were repeated on day 6, and the final viable cells measurement was taken on day 10.
Percentage of viable cells, relative to DMSO vehicle control, were calculated and plotted in Graphpad Prism ([Inhibitor]vs. normalized response−Variable slope) to determine proliferation IC50 values on day 10.
One day before experiment, Granta-519 cells were passaged to a density of 0.5×10^6 cells/ml. U-87 MG cells were trypsinized and 2,000 cells were seeded into 96-well plates and allow to grow overnight. On the day of experiment (day 0), Granta-519 Cells were spun down at 1,500 rpm for 4 min, resuspended in fresh medium to 0.5×10^6 cells/ml and 190 ul of cells were added to 96 well plates. For U-87 MG cells, old medium was removed and replaced with 190 uL fresh medium. Compound working stocks were first diluted at 1:50 with fresh medium in 96 well plate and 10 μL of diluted drugs were added to 96 well plates containing cells and incubated for 3 days. DMSO was used a vehicle control.
One day 3, 50 uL of Granta-519 cells were transferred to a new 96-well plate and 140 uL fresh medium was added. For U-87 MG cells, old medium was removed and replaced with 190 uL fresh medium. Compound working stocks were freshly diluted at 1:50 with medium and 10 μL of diluted drugs were added to cells and grow for 3 additional days. The same process was repeated on day 6. Cells were allowed to grow for additional 4 days.
On day 10, 100 uL Granta-519 cells were transferred to a new 96 well plate and 10 μL of Cell Counting Kit-8 (CCK-8, Jojindo, CK04-13) solution was added. For U-87 MG cells, old medium was removed and replaced with 100 uL fresh medium and 10 uL CCK-8 solution was added. Plates were incubated in CO2 incubator for 2 hours (Granta-519 cells) or 30 min (U-87 MG cells) and OD450 values were measured with a microplate reader (iMark microplate reader, Bio-Rad). Percentage of viable cells, relative to DMSO vehicle control, were calculated and plotted in Graphpad Prism ([Inhibitor]vs. normalized response−Variable slope) to determine proliferation IC50 values on day 10.
These cell proliferation procedures produced the data in Table 7.

[1] abbreviates: 240 h, Granta-519, day 10, read-out: Prolif_Granta IC50.

A word on the IC50: it is the concentration at which inhibition is half-maximal. As to `C[C@@](O)(c1ccc2c(c1)CC2)[C@H]1O[C@@H](n2ccc3c(N)ncnc32)[C@H](O)[C@@H]1O` [Example 1, (2R,3R,4S,5S)-2-(4-amino-7H-pyrrolo[2,3-d]pyrimidin-7-yl)-5-((R)-1-(bicyclo[4.2.0]octa-1(6),2,4-trien-3-yl)-1-hydroxyethyl)tetrahydrofuran-3,4-diol], the IC50 is 0.038 µM under setting [1] and 0.028 µM (Granta-519, initial testing, read-out: Prolif_(Granta) IC50).

`Cc1ncnc2c1ccn2[C@@H]1O[C@H]([C@H](O)c2nc3c(s2)CCC3)[C@@H](O)[C@H]1O` [Example 52, (2S,3S,4R,5R)-2-((S)-(5,6-dihydro-4H-cyclopenta[d]thiazol-2-yl)(hydroxy)methyl)-5-(4-methyl-7H-pyrrolo[2,3-d]pyrimidin-7-yl)tetrahydrofuran-3,4-diol]: under setting [1], the 50% inhibitory concentration (IC50) came out at 0.396 µM.

As to `OCCc1ncnc2c1ccn2[C@@H]1O[C@H]([C@H](O)c2ccc3c(c2)CC3)[C@@H](O)[C@H]1O` [Example 53, (2R,3S,4R,5R)-2-((R)-bicyclo[4.2.0]octa-1,3,5-trien-3-yl(hydroxy)methyl)-5-(4-(2-hydroxyethyl)-7H-pyrrolo[2,3-d]pyrimidin-7-yl)tetrahydrofuran-3,4-diol], the IC50 under setting [1] worked out at 10 µM.

Take `Nc1ncnc2c1ccn2[C@@H]1O[C@H]([C@H](O)c2ccc3c(c2)CC3)[C@@H](O)[C@H]1O` [Example 2, (2R,3R,4S,5R)-2-(4-amino-7H-pyrrolo[2,3-d]pyrimidin-7-yl)-5-((R)-bicyclo[4.2.0]octa-1(6),2,4-trien-3-yl(hydroxy)methyl)tetrahydrofuran-3,4-diol]: the IC50 under setting [1] was found to be 0.035 µM.

On to `O[C@@H]1[C@H](O)[C@@H]([C@H](O)c2ccc3c(c2)CC3)O[C@H]1n1ccc2c(Cl)ncnc21` [Example 56, (2R,3S,4R,5R)-2-((R)-bicyclo[4.2.0]octa-1(6),2,4-trien-3-yl(hydroxy)methyl)-5-(4-chloro-7H-pyrrolo[2,3-d]pyrimidin-7-yl)tetrahydrofuran-3,4-diol], for which the IC50 under setting [1] worked out at 50 µM.

On to `Nc1ncnc2c1c(Br)cn2[C@@H]1O[C@H]([C@H](O)c2ccc3c(c2)CC3)[C@@H](O)[C@H]1O` [Example 36, (2R,3R,4S,5R)-2-(4-amino-5-bromo-7H-pyrrolo[2,3-d]pyrimidin-7-yl)-5-((R)-bicyclo[4.2.0]octa-1,3,5-trien-3-yl(hydroxy)methyl)tetrahydrofuran-3,4-diol], for which the IC50 under setting [1] was 1.1 µM.

In the case of `Nc1ncnc2c1c(F)cn2[C@@H]1O[C@H]([C@H](O)c2ccc3c(c2)CC3)[C@@H](O)[C@H]1O` [Example 6, (2R,3R,4S,5R)-2-(4-amino-5-fluoro-7H-pyrrolo[2,3-d]pyrimidin-7-yl)-5-((R)-bicyclo[4.2.0]octa-1(6),2,4-trien-3-yl(hydroxy)methyl)tetrahydrofuran-3,4-diol], the IC50 under setting [1] is 0.067 µM.

As to `Cc1ncnc2c1ccn2[C@@H]1O[C@H]([C@H](O)c2ccc3c(c2)CC3)[C@@H](O)[C@H]1O` [Example 11, (2R,3S,4R,5R)-2-((R)-bicyclo[4.2.0]octa-1(6),2,4-trien-3-yl(hydroxy)methyl)-5-(4-methyl-7H-pyrrolo[2,3-d]pyrimidin-7-yl)tetrahydrofuran-3,4-diol], the IC50 under setting [1] was found to be 0.092 µM.

As for `CNc1ncnc2c1ccn2[C@@H]1O[C@H]([C@H](O)c2ccc3c(c2)CC3)[C@@H](O)[C@H]1O` [Example 54, (2R,3S,4R,5R)-2-((R)-bicyclo[4.2.0]octa-1(6),2,4-trien-3-yl(hydroxy)methyl)-5-(4-(methylamino)-7H-pyrrolo[2,3-d]pyrimidin-7-yl)tetrahydrofuran-3,4-diol], under setting [1], the IC50 came to 1.01 µM.
